# Measurements reported in paper PMC2151574 (The Journal of General Physiology, 2006).
# Values joined by “and” are separate entries in the source; they are usually repeats but may differ in a detail not shown here. Equal entries are not always repeated. “Also recorded” adds a separate entry of the source. Where two headings read alike, the source gives them in different places. Where a SMILES comes first, the peptide text is derived from it.
# Key:
# [1] = test system: S6/2-KcsA BK channel construct; format: cell-based, mouse
# [2] = target: wild-type BK channel (mslo, mbr5) (Mus musculus, UniProt Q08460); assay: Macroscopic block of wild-type BK currents, inside-out patch clamp; format: cell-based; details: for time constant of block, τfast (double exponential fit) / time constant of block, τslow (double exponential fit): inside-out patch, 22°C, holding potential −80 mV
# Chain of wild-type BK channel (mslo, mbr5) (Q08460 66-1209 limits assumed): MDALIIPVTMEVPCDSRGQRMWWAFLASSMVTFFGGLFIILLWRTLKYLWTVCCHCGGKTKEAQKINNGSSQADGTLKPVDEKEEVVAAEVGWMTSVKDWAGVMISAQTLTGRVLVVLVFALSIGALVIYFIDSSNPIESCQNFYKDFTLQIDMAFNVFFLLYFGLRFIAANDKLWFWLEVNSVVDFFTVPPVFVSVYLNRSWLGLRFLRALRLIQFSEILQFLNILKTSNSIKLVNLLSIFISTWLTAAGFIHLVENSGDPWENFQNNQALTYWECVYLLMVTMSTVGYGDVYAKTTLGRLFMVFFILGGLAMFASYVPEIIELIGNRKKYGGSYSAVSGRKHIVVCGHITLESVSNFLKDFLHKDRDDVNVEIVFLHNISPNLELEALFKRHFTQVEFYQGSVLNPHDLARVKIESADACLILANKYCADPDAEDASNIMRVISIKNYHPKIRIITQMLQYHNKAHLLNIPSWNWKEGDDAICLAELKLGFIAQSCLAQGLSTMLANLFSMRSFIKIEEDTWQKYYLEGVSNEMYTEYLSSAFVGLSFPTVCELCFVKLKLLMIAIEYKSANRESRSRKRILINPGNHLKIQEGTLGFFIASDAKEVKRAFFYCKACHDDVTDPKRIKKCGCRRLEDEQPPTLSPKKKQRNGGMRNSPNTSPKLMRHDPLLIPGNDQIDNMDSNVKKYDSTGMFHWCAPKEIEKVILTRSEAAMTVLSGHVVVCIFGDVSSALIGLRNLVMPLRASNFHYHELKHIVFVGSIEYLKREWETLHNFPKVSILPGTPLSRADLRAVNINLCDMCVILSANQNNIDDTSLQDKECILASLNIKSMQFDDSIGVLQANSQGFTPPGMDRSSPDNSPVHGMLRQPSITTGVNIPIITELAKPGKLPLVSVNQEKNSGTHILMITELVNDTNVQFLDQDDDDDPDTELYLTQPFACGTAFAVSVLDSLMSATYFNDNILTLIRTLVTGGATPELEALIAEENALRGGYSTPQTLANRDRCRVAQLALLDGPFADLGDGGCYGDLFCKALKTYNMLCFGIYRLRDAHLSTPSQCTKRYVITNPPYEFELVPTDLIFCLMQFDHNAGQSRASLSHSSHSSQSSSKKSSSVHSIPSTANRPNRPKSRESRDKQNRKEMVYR
# [3] = target: T1, wild-type BK channel (mslo) (Mus musculus, UniProt Q08460); assay: Single channel recordings, wild-type BK channel; format: cell-based; details: n = 5
# T1 sequence (Q08460 66-1209 limits assumed): as above
# [4] = target: S6/2-KcsA BK channel construct (Mus musculus, UniProt Q08460, A378T/A381G/E386A/E389T/I387L/I388A/I391F/L377I/L390W/M379S/P385A/S382L/V384T/Y383V); format: cell-based
# Chain of S6/2-KcsA BK channel construct (Mus musculus, UniProt Q08460, A378T/A381G/E386A/E389T/I387L/I388A/I391F/L377I/L390W/M379S/P385A/S382L/V384T/Y383V) (Q08460 28-1196 isoform Q08460-2 with the stated changes): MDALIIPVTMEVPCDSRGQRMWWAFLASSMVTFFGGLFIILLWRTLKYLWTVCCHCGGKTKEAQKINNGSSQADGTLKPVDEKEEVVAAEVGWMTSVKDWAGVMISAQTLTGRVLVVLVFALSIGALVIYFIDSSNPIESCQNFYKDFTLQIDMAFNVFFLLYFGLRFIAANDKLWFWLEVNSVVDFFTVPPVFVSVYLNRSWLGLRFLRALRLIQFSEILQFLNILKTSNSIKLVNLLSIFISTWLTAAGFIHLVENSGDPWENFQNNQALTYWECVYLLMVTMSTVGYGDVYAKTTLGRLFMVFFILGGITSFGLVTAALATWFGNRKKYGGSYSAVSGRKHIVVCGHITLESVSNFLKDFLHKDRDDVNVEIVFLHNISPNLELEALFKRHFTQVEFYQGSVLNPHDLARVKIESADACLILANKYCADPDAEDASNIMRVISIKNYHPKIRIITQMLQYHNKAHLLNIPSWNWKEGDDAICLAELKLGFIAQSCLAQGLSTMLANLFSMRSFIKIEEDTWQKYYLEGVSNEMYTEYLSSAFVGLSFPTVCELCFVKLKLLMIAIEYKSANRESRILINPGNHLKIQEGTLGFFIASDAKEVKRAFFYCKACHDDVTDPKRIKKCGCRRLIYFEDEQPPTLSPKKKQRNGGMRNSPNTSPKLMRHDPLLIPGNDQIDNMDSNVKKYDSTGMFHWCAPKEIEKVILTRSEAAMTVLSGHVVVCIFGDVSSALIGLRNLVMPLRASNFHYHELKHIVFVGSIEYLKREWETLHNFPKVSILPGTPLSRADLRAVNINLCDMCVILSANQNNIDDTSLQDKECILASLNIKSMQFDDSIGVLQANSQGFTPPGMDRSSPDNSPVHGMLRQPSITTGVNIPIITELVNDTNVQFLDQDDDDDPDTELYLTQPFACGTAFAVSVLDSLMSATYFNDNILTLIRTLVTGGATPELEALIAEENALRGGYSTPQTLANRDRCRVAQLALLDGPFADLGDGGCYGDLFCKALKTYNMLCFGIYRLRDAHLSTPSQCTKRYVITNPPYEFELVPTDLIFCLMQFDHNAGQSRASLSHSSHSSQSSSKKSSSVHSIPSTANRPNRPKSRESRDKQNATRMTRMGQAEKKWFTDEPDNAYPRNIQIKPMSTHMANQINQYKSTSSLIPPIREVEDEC
# [5] = target: T2, E321N, E324N mutant BK channel (Mus musculus, UniProt Q08460, E386N/E389N); format: cell-based; details: for decrease of apparent affinity of block in E321N, E324N mutant vs wild type: macroscopic currents
# T2 sequence (Q08460 66-1209 E386N/E389N limits assumed): as the sequence (Q08460 66-1209 limits assumed) above, with E321N, E324N counted along it
# BK channels [6] = details: cited from earlier work; for time dependence of block of BK currents: internal
# [7] = target: T2, E321N, E324N mutant BK channel; assay: Single channel recordings, E321N, E324N mutant; format: cell-based
# Shaker channels = details: ref Murrell-Lagnado and Aldrich, 1993b; cited from earlier work
# [8] = target: T1, wild-type BK channel (mslo); assay: State dependence of EBP block in High and Low Ca2+; format: cell-based; details: 3 μM EBP
# [9] = target: T1, wild-type BK channel (mslo); assay: Competition between TBA and EBP on macroscopic BK currents; format: cell-based
# [10] = target: T1, wild-type BK channel (mslo); assay: Deactivation; format: cell-based
# BK channels [11] = details: cited from earlier work
# [12] = test system: other K^+ channels and CNG channels; details: most other K^+ channels; cited from earlier work
# [13] = test system: Shaker channel (ShB Δ6-46); assay: Macroscopic block of Shaker currents, inside-out patch clamp; format: cell-based; details: identical conditions, holding potential −120 mV
# [14] = EBP at around half block concentration, 120 mV
# [15] = 500 μM TBA on top of 3 μM EBP, compared with 3 μM EBP alone
# [16] = when roughly half of the channels are blocked
compound,measurement,setting,value
"CCCCCCCCCC[N+](CC)(CC)CC [C10, Decyltriethylammonium]",block events in single S6/2-KcsA channels,[1]; 1 mM C10,too fast to resolve
same,Hill coefficient n (C10),"[2]; wild type, 100 mV, six patches",0.97
same,affinity of C10 relative to that of TBA,[2]; wild-type BK channels,~30 times
same,association rate,"[3]; 15 μM C10, mean ± SD",9.0 ± 1.6 ms^−1
same,dissociation rate of block (mean shut dwell time),"[3]; 120 mV, mean ± SD",6.4 ± 0.5 ms^−1
same,"affinity of C10 vs TBA, S6/2-KcsA",[4],lower affinity than TBA
same,decrease of apparent affinity of C10 in S6/2-KcsA vs wild type,[4],almost two orders of magnitude
same,block of macroscopic S6/2-KcsA currents by C10,[4]; 1 mM C10,about half the macroscopic currents
same,Hill coefficient n (C10),"[4]; S6/2-KcsA, 100 mV, five patches",0.95
same,Hill coefficient n (C10),"[5]; E321N, E324N mutant, 100 mV, eight patches",1.01
same,"decrease of apparent affinity of block in E321N, E324N mutant vs wild type",[5],~2.5 fold
same,time dependence of block of BK currents,"BK channels [6]; ref Li and Aldrich, 2004",without apparent time dependence
same,association rate,"[7]; E321N, E324N mutant, 40 μM C10, mean ± SD, n = 5",12.5 ± 1.1 ms^−1
same,dissociation rate of block (mean shut dwell time),"[7]; E321N, E324N mutant, 120 mV, mean ± SD, n = 5",7.8 ± 0.6 ms^−1
CSCC[C@H](NC(C)=O)C(=O)N[C@@H](C)C(=O)N[C@@H](C)C(=O)N[C@H](C(=O)N[C@@H](C)C(=O)NCC(=O)N[C@@H](CC(C)C)C(=O)N[C@@H](Cc1ccc(O)cc1)C(=O)NCC(=O)N[C@@H](CC(C)C)C(=O)NCC(=O)N[C@@H](CCCCN)C(=O)N[C@@H](CCCCN)C(=O)N[C@@H](CCCNC(=N)N)C(=O)N[C@@H](CCC(N)=O)C(=O)N[C@@H](Cc1c[nH]cn1)C(=O)N[C@@H](CCCNC(=N)N)C(=O)N[C@@H](CCCCN)C(=O)N[C@@H](CCCCN)C(=O)N[C@@H](CCC(N)=O)C(N)=O)C(C)C [EBP] (Ac-MAAVAGLYGLGKKRQHRKKQ-NH2),block events in single S6/2-KcsA channels,"[1]; 100 μM EBP, 120 mV",fails to result in resolvable block events
same,dissociation rate of EBP in S6/2-KcsA channels vs TBA,[1]; 100 μM each,even faster than that of TBA
same,affinity for Shaker channels vs native ShBP,Shaker channels,much higher affinity for Shaker channels
same,association rate for Shaker channels vs native ShBP,Shaker channels,significantly higher association rate for Shaker channels than native ShBP
same,rising phase of BK currents (activation) vs control,"[2]; 1 μM EBP, 120 mV",largely unchanged compared with control
same,"time constant of block, τ (single exponential fit)","[2]; 1 μM EBP, 120 mV, macroscopic",17.6 ms
same,"fraction of remaining current (I/Io), voltage dependence","[2]; 1 μM EBP, end of 60-ms pulses, n = 6",decreases with increased membrane potentials
same,block of wild-type BK currents,[2]; 3 μM EBP,nearly complete block
same,single channel openings at steady-state block,[2]; 3 μM EBP,single channel openings to the full current level are clearly evident
same,"time constant of block, τ (single exponential fit)","[2]; 3 μM EBP, 120 mV, macroscopic",4.5 ms
same,"time constant of block, τ (single exponential fit)","[2]; 10 μM EBP, 120 mV, macroscopic",1.1 ms
same,"1/τ of block, concentration dependence","[2]; 1, 3 and 10 μM EBP, positive voltages (≥40 mV), n = 6",linearly dependent on the concentration of EBP
same,time constant of the single exponential decay,[2]; low concentration of EBP blocking roughly half of the channels (unpublished data),~100 ms
same,"association rate constant (Kon), voltage dependence",[2]; slope of 1/τ vs EBP concentration,larger depolarizations resulting in higher association rate constants
same,Hill coefficient n (EBP),"[2]; wild type, 120 mV, 500 ms pulses, 5 patches",1.16
same,"fraction of preblock, Po ∼0","[8]; High Ca^2+, lower end of range −80 to 80 mV",~0
same,"relative amplitude of the test current, change with prepulse","[8]; Low Ca^2+, −80 to 80 mV, Po ∼0",doesn't change much
same,state dependence of block,[8]; High and Low Ca^2+ solutions,much more favored in an open configuration than a closed one; also recorded: peptide binding is much more favored in an opened BK channel
same,"time constant of block, τ",[9]; 3 μM EBP alone,2.8 ms
same,"time constant of block, τ",[9]; 3 μM EBP plus 500 μM TBA,5.6 ms
same,competition of TBA and EBP binding,"[9]; 3 μM EBP, 500 μM TBA, positive potentials",mutually exclusive
same,block of S6/2-KcsA current by EBP,"[4]; 100 μM EBP, 120 mV, mean ± SD, n = 5",23.0 ± 0.5% and ~20%
same,"apparent affinity of EBP for S6/2-KcsA vs E321N, E324N double mutant",[4]; 120 mV,about threefold lower
same,apparent affinity of EBP for S6/2-KcsA vs wild-type BK,[4]; 120 mV,more than three orders of magnitude lower
same,"block of E321N, E324N currents by EBP","[5]; 100 μM EBP, 120 mV",< 60%
same,decrease of apparent affinity of EBP block in double mutant vs wild type,"[5]; 120 mV, from fitted dose responses",more than two orders of magnitude
same,Hill coefficient n (EBP),"[5]; E321N, E324N mutant, 120 mV, 11 patches",0.72
same,time constant of dominating component of block,[5]; [14],a few milliseconds
same,time constant of very small component of block,[5]; [14],hundreds of milliseconds
same,deactivation of BK channels,"[10]; 3 μM EBP, tail current compared with control",slowed compared with the control trace; also recorded: Deactivation of BK channels is slowed by EBP
same,"normalized tail current time constant, τslow (double exponential fit)","[10]; 3 μM EBP, −160 mV after depolarization to 120 mV",7.3 ms
same,"normalized tail current time constant, τfast (double exponential fit)","[10]; 3 μM EBP, −160 mV after depolarization to 120 mV (control τ = 0.25 ms)",0.37 ms
same,"tail current time constant, slower component","[10]; EBP, negative potentials, relatively voltage insensitive",~10 ms
same,"tail current time constant, fast component","[10]; EBP, −60 mV",~2 ms
same,"tail current time constant, fast component","[10]; EBP, −160 mV",~0.3 ms
same,off rate at negative potentials,[10]; from modeling tail currents with a C↔O↔B model,~100 s⁻¹
same,"type of block events, single BK channels","BK channels [11]; near 0 mV, ref Toro et al., 1994",mostly short block events; also recorded: predominantly short block events
same,affinity for BK channels,"BK channels [11]; single channel, ref Toro et al., 1994",higher affinity for BK channels than ShBP
same,"duration of block events, single E321N, E324N channel","[7]; 100 μM EBP, 80 mV",mainly short block events lasting a few milliseconds
"CCCC[N+](CCCC)(CCCC)CCCC [TBA, Tetrabutylammonium]",block of single S6/2-KcsA channels vs wild-type BK,[1]; 0.4 mM TBA,kinetically very similar
same,Hill coefficient n (TBA),"[2]; wild type, 120 mV, five patches",0.87
same,reduction of peak current by added TBA,[9]; [15],about half
same,slowing of time-dependent EBP block by added TBA,[9]; [15],about twofold
same,affinity of TBA in S6/2-KcsA vs wild-type BK,[4],almost exactly the same affinity
same,block of macroscopic S6/2-KcsA currents by TBA,"[4]; 100 μM TBA, 120 mV",~20%
same,block of mutant currents by TBA,"[4]; 20 mM TBA, S6/2-KcsA",~100%
same,Hill coefficient n (TBA),"[4]; S6/2-KcsA, 120 mV, five patches",0.97
same,sensitivity of S6/2-KcsA channels to TBA,"[4]; voltage ramp −80 to 200 mV, 0.3 and 10 mM TBA",sensitive to millimolar concentrations of TBA
same,block of mutant currents by TBA,"[5]; 20 mM TBA, E321N, E324N mutant",~100%
same,Hill coefficient n (TBA),"[5]; E321N, E324N mutant, 120 mV, nine patches",0.89
same,"decrease of apparent affinity of block in E321N, E324N mutant vs wild type",[5],~2.5 fold
same,inhibition of BK current at steady state,"BK channels [6]; 500 μM TBA, positive potentials, ref Li and Aldrich, 2004",~50%
same,block of BK channels,"BK channels [6]; internal TBA, ""our previous study"", ref Li and Aldrich, 2004",fast block of BK channels at submillimolar concentrations
same,time dependence of block of BK currents,"BK channels [6]; ref Li and Aldrich, 2004",without apparent time dependence
same,single channel block in mutant vs wild type,"[7]; 1 mM TBA in E321N, E324N mutant vs 0.4 mM in wild type, 120 mV",qualitatively very similar
CCCC[N+](CCCC)(CCCC)Cc1ccc(C(=O)c2ccccc2)cc1 [bbTBA],access of blocker to BK channels,"BK channels [6]; ref Wilkens and Aldrich, 2006",may not be restricted by a cytoplasmic gate
MAAVAGLYGLGEDRQHRKKQ [ShBP],"dissociation rate, Shaker channels",Shaker channels,~10 s⁻¹
same,"time constant of block, τfast (double exponential fit)","[2]; 30 μM ShBP, macroscopic",2.0 ms
same,"time constant of block, τslow (double exponential fit)","[2]; 30 μM ShBP, macroscopic",13.1 ms
same,block of wild-type BK currents by ShBP,"[2]; 100 μM ShBP, 120 mV",~70%
same,"time constant of block, τfast (double exponential fit)","[2]; 100 μM ShBP, macroscopic",0.7 ms
same,"time constant of block, τslow (double exponential fit)","[2]; 100 μM ShBP, macroscopic",5.2 ms
same,type of block events in BK channels,[2]; native ShBP,mainly short block events
same,character of block events,"[2]; when about half of the currents are blocked, macroscopic",the majority of the block events are short lived
same,"time constant of block, faster of two components",[2]; [16],~2 ms
same,"time constant of block, slower of two components",[2]; [16],~10 ms
same,"block of E321N, E324N currents by ShBP","[5]; 100 μM ShBP, 120 mV (unpublished data), roughly estimated",~20%
same,decrease in apparent affinity of ShBP by the double mutation,[5]; 120 mV,~10 fold
same,"lifetime of short block events, single BK channels","BK channels [11]; dominating, ref Foster et al., 1992, Toro et al., 1992, 1994",a few milliseconds
same,"lifetime of long block events, single BK channels","BK channels [11]; rare, ref Foster et al., 1992, Toro et al., 1992, 1994",hundreds of milliseconds
same,dissociation rate for the short block of BK channels,"BK channels [11]; ref Foster et al., 1992, Toro et al.",~100 s⁻¹
same,type of block events in other K+ channels,[12],only long block events
same,block of Shaker compared with BK currents,[13],slower block and higher apparent affinity
